According to ChEMBL document CHEMBL4888484, “Replenishing the malaria drug discovery pipeline: Screening and hit evaluation of the MMV Hit Generation Library 1 (HGL1) against asexual blood stage Plasmodium falciparum ,using a nano luciferase reporter read-out” (2022):

Assays:
Plasmodium falciparum [1] = assay: Hit confirmation in dose-response curve in NF54 nanoGlo assay, at 72h; assay type: functional, organism-based, Erythrocyte; design: timepoint 72 hour; conditions: Plasmodium falciparum, NF54, Erythrocyte, 72 h
Plasmodium falciparum [2] = assay: Hit confirmation in dose-response curve in NF54 pLDH assay, at 72h; assay type: functional, organism-based; design: timepoint 72 hour; conditions: NF54, Erythrocyte
Plasmodium falciparum [3] = assay: Hit confirmation in dose-response curve in Dd2 pLDH assay, at 72h; assay type: functional, organism-based; design: timepoint 72 hour; conditions: Dd2, Erythrocyte
Plasmodium falciparum [4] = assay: Hit confirmation in dose-response curve in NF54 nanoGlo assay, at 12h; assay type: functional, organism-based, Erythrocyte; design: timepoint 12 hour; conditions: Plasmodium falciparum, NF54, Erythrocyte, 12 h
[5] = Hit confirmation in dose-response curve in HepG2 cytotoxicity assay, at 72h; assay type: toxicity, cell-based; design: timepoint 72 hour; conditions: human, HepG2 cells

SMILES | IC50 (Plasmodium falciparum [1]) [nM] | IC50 (Plasmodium falciparum [2]) [µM] | IC50 (Plasmodium falciparum [3]) [µM] | IC50 (Plasmodium falciparum [4]) [µM] | IC50 at 72 h [5] [µM]
c1coc(CNc2nc(Nc3cccc4ccccc34)nc3ccccc23)c1 | 2820 | 7.94 | 5.01 | 5.75 | > 10
O=C(Nc1nncs1)c1cccc(C(=O)Nc2nncs2)n1 | 1950 | 3.24 | 3.31 | > 10 | > 10
CC1CCC(c2noc([C@H]3CCO[C@@H]3c3cncc(Br)c3)n2)CC1 (stereo not given in full) | 2880 | 4.47 | 3.89 | > 10 | > 10
CC(N=C1NC(=NC(C)c2ccccc2)c2ccccc21)c1ccccc1 (stereo not given) | 2450 | 5.01 | 4.17 | 4.9 | > 10
CC1CCN(Cc2ccc(CNCc3c[nH]nc3-c3ccc(F)cc3)cc2)CC1 | 3470 | 6.61 | 3.55 | 7.94 | > 10
CCc1c(C)nn2c(c1C)c(-c1ccccc1)[n+]1c(C)c(CC)c(C)nc21 | 1700 | 2.19 | 1.48 | > 10 | > 10
COc1ccc(-c2nn3c(N4CCN(CC=Cc5ccccc5)CC4)cc(C)nc3c2C)cc1OC | 1740 | 7.76 | 5.37 | 3.89 | > 10
O=C(Nc1cccc2cccnc12)c1ccccn1 | 794 | 0.871 | 2 | > 10 | 3.47
O[C@@H](CNCc1ccsc1C(F)(F)F)c1cc(Cl)c2c(c1)OCCO2 | 3160 | 6.46 | 3.47 | 7.24 | > 10
Cc1nn(C(C)(C)C)c2nc(C3CC3)cc(C(=O)N(C)c3ccccc3)c12 | 1860 | 2.34 | 1.66 | > 10 | > 10
O=c1nc2n(nc1-c1ccccc1)C1(CCC1)Nc1ccccc1-2 | 759 | 2.82 | 1.86 | 4.07 | > 10
CC1(C)CCC(Nc2ccc(C(N)=O)nn2)CC1 | 490 | 0.0871 | > 10 | > 10 | > 10
O=C(Nc1[nH]c(=O)ncc1F)c1cccc2ccccc12 | 6.17 | 0.0105 | > 10 | 1.95 | > 10
Cc1c(C)c2ccc(NC(=O)c3cc4ccccc4o3)cc2[nH]c1=O | 1660 | 8.13 | 3.24 | 3.47 | > 10
CN(C)CCN(C)c1ccc(Br)cc1NCc1cncn1C | 2000 | 3.47 | 2.95 | 3.72 | > 10
Cc1cc(N(C)CCC2CC2)nc([C@H](C)N(C)CCC2CC2)n1 | 1380 | 2.4 | 2.19 | 7.94 | > 10
CC(C)O[C@@H]1CCN(C[C@H](O)c2ccc(C(F)(F)F)cc2)C1 | 2090 | 3.09 | 2.82 | 3.31 | > 10
COc1cc(F)c([C@H](C)NC(=O)N(C)Cc2ccco2)cc1OC | 1860 | > 10 | 10.7 | 0.891 | > 10
O=C(Nc1c(S(=O)(=O)c2ccccc2)c2nc3ccccc3nc2n1CCc1ccccc1)c1ccc(Cl)cc1 | 1100 | 11.2 | 5.62 | 0.603 | > 10
CC(C)C(NC(=O)COc1ccccc1)C(=O)NCC(c1ccccc1Cl)c1c[nH]c2ccccc12 (stereo not given) | 2400 | 9.12 | 7.76 | 3.39 | > 10
Cc1ccc(C)c(-n2cnc(=O)n2[C@H]2CCN(C3CC3)C2=O)c1 | 2950 | 8.32 | 5.75 | > 10 | > 10
COc1cc2c(cc1OC)[C@@H](NC(=O)c1cnc(C3(C)OCCO3)s1)CCCC2 | 2040 | 7.41 | 4.79 | 4.79 | > 10
COc1cccc2c(=O)c3c([nH]c12)CCN(CC(=O)NCc1ccccc1Cl)C3 | 9770 | 10 | 9.12 | > 10 | > 10
Cn1cncc1CC(=O)Nc1ccnc(NC(=O)OC(C)(C)C)c1 | 1230 | 3.8 | 2.14 | 1.78 | > 10
NC(=O)C(NC(=O)c1cccc(Cl)c1)C(N)=O | > 10000 | > 10 | > 10 | > 10 | > 10
Oc1c([C@@H](c2ccccn2)N2CCCC2)ccc2cccnc12 | 2140 | 7.76 | 2.34 | 3.55 | > 10

SMILES | IC50 (Plasmodium falciparum [1]) [nM] | IC50 (Plasmodium falciparum [2]) [µM] | IC50 (Plasmodium falciparum [3]) [µM] | IC50 (Plasmodium falciparum [4]) [µM] | IC50 at 72 h [5] [µM]
COC1CCCC1NC(=O)Nc1ncc(Br)cc1C (stereo not given) | 2000 | 1.38 | 2.29 | 6.76 | > 10
OC(CNC1CCCNc2ccccc21)c1ccc(Cl)s1 (stereo not given) | 2290 | 3.89 | 3.63 | 2.95 | > 10
COc1ccccc1N(Cc1ccccc1)C1=NC(=[N+](Cc2ccccc2)c2ccccc2OC)c2ccccc21 | 2820 | 6.03 | 5.5 | 4.68 | > 10
COc1cc(C(=O)Nc2[nH]c(=O)ncc2F)ccc1Cl | 5.89 | 0.01 | > 10 | 7.76 | > 10
NC1CC(NCCc2cccc3cccnc23)c2ccccc21 (stereo not given) | 2450 | 7.76 | 5.75 | 5.01 | > 10
CCc1ccc(NC(=O)[C@H](C)N2CCC(NS(=O)(=O)c3cccs3)CC2)cc1 | 1150 | 4.17 | 2.29 | 4.79 | > 10
CN(Cc1ccsc1)C(=O)c1cc2ccccc2[nH]1 | > 10000 | > 10 | > 10 | > 10 | > 10
Cc1cccc2ncnc(N(C)[C@@H](C)Cc3ccc(O)cc3)c12 | 1860 | 3.09 | 2.82 | 2.45 | > 10
Cc1ccc(C(F)(F)C(=O)NCCC(=O)NS(C)(=O)=O)cc1 | 2750 | 0.447 | > 10 | > 10 | > 10
CC1(C)C(NCC(O)COc2ccc(F)c(F)c2)[C@@H]2CCC[C@@H]21 (stereo not given in full) | 1780 | 3.24 | 3.24 | 2.95 | > 10
C[C@@H](CN)N(C)c1ccnc2cc(Br)cnc12 | 513 | 0.562 | 0.447 | 0.661 | > 10
O=C(Nc1[nH]c(=O)ncc1F)c1cc(F)c(F)cc1Br | 1.91 | 0.00166 | > 10 | 0.501 | > 10
Cc1cc(Br)cc(N[C@H](c2cccnc2)c2ncc[nH]2)c1 | 3390 | > 10 | > 10 | 1.48 | > 10
COc1cc(C(=O)Nc2ccc3sc(NC(=O)c4cc(OC)c(OC)c(OC)c4)nc3n2)cc(OC)c1OC | 263 | 2.95 | 2.95 | 1.15 | > 10
Cc1cc(C(=O)N[C@@H](C)c2nc(-c3cccnc3)cs2)cc(O)n1 | 1740 | 2.24 | 2.4 | 3.39 | > 10
O=C(Nc1ccc(Cl)c(Cl)c1)Nc1ccc(Cl)cc1NC(=O)Nc1ccc(Cl)c(Cl)c1 | 2040 | 6.92 | 4.47 | 3.31 | > 10
CC1CC(C(=O)Nc2[nH]c(=O)ncc2F)CC(C)(C)C1 (stereo not given) | 2.04 | 0.00331 | > 10 | 0.49 | > 10
Cc1cc(NC(=O)c2ccccn2)n(-c2nc3ccccc3o2)n1 | 457 | 3.63 | 3.16 | > 10 | > 10
Cc1ccccc1C(=O)Cc1ncc[nH]1 | 2290 | 5.75 | 3.89 | 4.9 | > 10
CCOC(=O)c1cc(F)cc(S(=O)(=O)Nc2ccnc3ncnn23)c1 | 5890 | > 10 | > 10 | 1.35 | > 10
CC(C)c1nc(C(=O)Nc2[nH]c(=O)ncc2F)cs1 | 1.95 | 0.00214 | > 10 | 0.955 | > 10
FC(F)(F)C1CN(c2nc(-c3ccccn3)nc3c2CCC3)C1 | 1290 | 2.45 | 2.29 | 2.45 | > 10
Cc1cc(C(=O)NC2CC(C)n3ccnc32)nn1C(C)C (stereo not given) | 2450 | 0.1 | > 10 | > 10 | > 10
Oc1cccc(CN[C@H]2CCCc3occc32)c1Cl | 1580 | 2.75 | 2.75 | 2.04 | > 10
O=C(c1ccccc1)c1ccc(O)c(CN2CCCN(c3ccc(C(F)(F)F)cn3)CC2)c1O | 1820 | 3.72 | 3.09 | 2.82 | > 10
CC1CC(Nc2ncnc3cc(Br)ccc23)CCN1C (stereo not given) | 1050 | 1.58 | 1.07 | 1.55 | > 10
